Experimental data as given in publication PMC5668434, “Modulation of telomere protection by the PI3K/AKT pathway” (Nature Communications, 2017).

What was measured:
[1] = target: T1, PI3K-γ (p110γ) (Homo sapiens, UniProt P48736); assay: PI3K isoforms biochemical assay (HTRF), PI3K-γ; settings: read-out: PI3Kγ IC50
T1 construct: purchased Invitrogen PV4787
Description: PI3Kα (p110α/p85α), PI3K-δ (p110δ/p85α), and PI3K-γ (p110γ) were purchased from Invitrogen (PV4789, PV 5274, and PV4787, respectively). PI3K-β (p110β/p85α) was obtained from Millipore (#14-603). The kinase activity was measured with the commercial PI3-kinase (human) HTRF™ assay available from Millipore (#33-017), following the manufacturer recommendations. The final enzyme concentration in the assay were 100 pM for PI3K-α and PI3K-δ, 500 pM for PI3K-β, and 4 nM for PI3K-γ. […] The enzyme was preincubated with the inhibitor and with 10 μM of PIP2 for 5 min. The enzymatic reaction was started by addition of ATP at 50 times the Km. The incubation was kept at 37 °C for 60 min. Stop solution and detection mix were added sequentially to the wells and plates were incubated 3 h in the dark at 25 °C. HTRF counts were measured in an EnVision reader (Perkin Elmer) using the recommended settings. Values were normalized against the control activity included for the enzyme (100% PI3 kinase activity, without compound). These values were plotted against the inhibitor concentration and were fit to a sigmoid dose-response curve by using Activity base software from IDBS.

[2] = tested on: CHA 9-3 cells; assay: Multitelomeric signals (MTS) by Q-FISH on metaphase spreads; format: cell-based, mouse; settings: 10 μM, 24 h
Text: Trf1 abrogation is known to lead to a persistent DDR at telomeres, and to induction of telomere-induced chromosomal aberrations[28]–[30]. Trf1 genetic deletion induces the so-called multitelomeric signals (MTS), a chromosomal aberration related to increased telomere fragility during DNA replication, [29]. […] To this end, we treated CHA 9-3 cells with either DMSO, the AKT inhibitor MK-2206 (AKTi) and the PI3K inhibitors ETP-47037 or ETP-47228. For detection of MTS, we performed quantitative fluorescence in situ hybridization (Q-FISH) analysis on metaphase spreads using a telomeric probe to visualize telomeres (“Methods” section). MTS are visualized by presenting a multi-dot pattern at chromosome ends in contrast to normal telomeres that show a single dot at each chromosome end.
Lung cancer-derived cell line (CHA-9-3) and immortalized P110α ^lox/lox MEFS were treated either with 10 µM of ETP-47037, ETP-47228, or AKTi (MK-2206) for 24 h. Q-FISH in metaphase spreads was performed as described above, but increasing the concentration of formamide in both the incubation and the washes to 70%.

[3] = tested on: TRF1 mRNA in CHA 9-3 lung cancer cells; assay: TRF1 mRNA by qPCR; format: cell-based, mouse; settings: 10 μM, 24 h
[4] = target: T2, AKT2 (Homo sapiens, UniProt P31751); assay: ProQinase kinase panel; format: biochemical; settings: read-out: Inh (%) at 1µM, AKT2
T2 construct: purchased ProQinase
Description: (§1) Supplementary Table 1: Kinase selectivity profile of ETP-47037 and ETP-47228 at 1 µM. Selectivity against protein kinases was determined from evaluation of compounds at 1µM in ProQinase’s 24 selected panel that represents the ACG, STE, TKL, TK, CMGC CAMK and CK1 kinase families.

[5] = target: T3, B-RAF-V600E (Homo sapiens, UniProt P15056, V600E); assay: ProQinase kinase panel; format: biochemical; settings: read-out: Inh (%) at 1µM, B-RAF-V600E
T3 construct: purchased ProQinase
Description: as §1

[6] = target: T4, CDK8-CycC (Homo sapiens, UniProt P49336); assay: ProQinase kinase panel; format: biochemical; settings: read-out: Inh (%) at 1µM, CDK8-CycC
T4 construct: purchased ProQinase
Description: as §1

[7] = target: T5, CK1-alpha1 (Homo sapiens, UniProt P48729); assay: ProQinase kinase panel; format: biochemical; settings: read-out: Inh (%) at 1µM, CK1-alpha1
T5 construct: purchased ProQinase
Description: as §1

[8] = target: T6, DYRK1A (Homo sapiens, UniProt Q13627); assay: ProQinase kinase panel; format: biochemical; settings: read-out: Inh (%) at 1µM, DYRK1A
T6 construct: purchased ProQinase
Description: as §1

[9] = target: T7, EGF-R (Homo sapiens, UniProt P00533); assay: ProQinase kinase panel; format: biochemical; settings: read-out: Inh (%) at 1µM, EGF-R
T7 construct: purchased ProQinase
Description: as §1

[10] = target: T8, FGF-R1 (Homo sapiens, UniProt P11362); assay: ProQinase kinase panel; format: biochemical; settings: read-out: Inh (%) at 1µM, FGF-R1
T8 construct: purchased ProQinase
Description: as §1

[11] = target: T9, INS-R (Homo sapiens, UniProt P06213); assay: ProQinase kinase panel; format: biochemical; settings: read-out: Inh (%) at 1µM, INS-R
T9 construct: purchased ProQinase
Description: as §1

[12] = target: T10, JAK2 (Homo sapiens, UniProt O60674); assay: ProQinase kinase panel; format: biochemical; settings: read-out: Inh (%) at 1µM, JAK2
T10 construct: purchased ProQinase
Description: as §1

[13] = target: T11, KIT (Homo sapiens, UniProt P10721); assay: ProQinase kinase panel; format: biochemical; settings: read-out: Inh (%) at 1µM, KIT
T11 construct: purchased ProQinase
Description: as §1

[14] = target: T12, MET (Homo sapiens, UniProt P08581); assay: ProQinase kinase panel; format: biochemical; settings: read-out: Inh (%) at 1µM, MET
T12 construct: purchased ProQinase
Description: as §1

[15] = target: T13, PAK1 (Homo sapiens, UniProt Q13153); assay: ProQinase kinase panel; format: biochemical; settings: read-out: Inh (%) at 1µM, PAK1
T13 construct: purchased ProQinase
Description: as §1

[16] = target: T14, PDGFR-alpha (Homo sapiens, UniProt P16234); assay: ProQinase kinase panel; format: biochemical; settings: read-out: Inh (%) at 1µM, PDGFR-alpha
T14 construct: purchased ProQinase
Description: as §1

[17] = target: T15, PDK1 (Homo sapiens, UniProt O15530); assay: ProQinase kinase panel; format: biochemical; settings: read-out: Inh (%) at 1µM, PDK1
T15 construct: purchased ProQinase
Description: as §1

[18] = target: T16, RPS6KA1 (Homo sapiens, UniProt Q15418); assay: ProQinase kinase panel; format: biochemical; settings: read-out: Inh (%) at 1µM, RPS6KA1
T16 construct: purchased ProQinase
Description: as §1

[19] = target: T17, SGK1 (Homo sapiens, UniProt O00141); assay: ProQinase kinase panel; format: biochemical; settings: read-out: Inh (%) at 1µM, SGK1
T17 construct: purchased ProQinase
Description: as §1

[20] = target: T18, SRC (Homo sapiens, UniProt P12931); assay: ProQinase kinase panel; format: biochemical; settings: read-out: Inh (%) at 1µM, SRC
T18 construct: purchased ProQinase
Description: as §1

[21] = target: T19, VEGF-R2 (Homo sapiens, UniProt P35968); assay: ProQinase kinase panel; format: biochemical; settings: read-out: Inh (%) at 1µM, VEGF-R2
T19 construct: purchased ProQinase
Description: as §1

T8 sequence (P11362 22-822): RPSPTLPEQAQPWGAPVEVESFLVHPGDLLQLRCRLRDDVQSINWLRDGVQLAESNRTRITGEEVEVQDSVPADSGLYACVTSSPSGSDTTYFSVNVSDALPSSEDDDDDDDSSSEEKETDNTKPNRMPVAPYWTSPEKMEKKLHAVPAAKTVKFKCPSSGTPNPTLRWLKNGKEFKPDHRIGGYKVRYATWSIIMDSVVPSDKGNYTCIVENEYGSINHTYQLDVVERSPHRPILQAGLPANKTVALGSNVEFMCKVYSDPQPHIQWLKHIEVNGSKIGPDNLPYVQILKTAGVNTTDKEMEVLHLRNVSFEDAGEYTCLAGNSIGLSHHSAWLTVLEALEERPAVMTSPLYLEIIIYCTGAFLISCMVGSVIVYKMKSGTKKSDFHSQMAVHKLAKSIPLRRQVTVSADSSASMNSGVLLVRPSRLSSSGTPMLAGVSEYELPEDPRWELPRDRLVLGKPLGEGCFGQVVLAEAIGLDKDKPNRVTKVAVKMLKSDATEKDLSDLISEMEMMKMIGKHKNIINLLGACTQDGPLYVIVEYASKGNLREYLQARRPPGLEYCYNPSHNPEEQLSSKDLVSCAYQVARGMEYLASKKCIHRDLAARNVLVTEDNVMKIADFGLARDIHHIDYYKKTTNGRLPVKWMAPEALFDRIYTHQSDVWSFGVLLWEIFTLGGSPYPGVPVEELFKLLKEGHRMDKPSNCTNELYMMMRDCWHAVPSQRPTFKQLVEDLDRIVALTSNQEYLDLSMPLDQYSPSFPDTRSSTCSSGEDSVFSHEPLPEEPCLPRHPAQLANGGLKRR
T10 sequence (O60674 whole entry): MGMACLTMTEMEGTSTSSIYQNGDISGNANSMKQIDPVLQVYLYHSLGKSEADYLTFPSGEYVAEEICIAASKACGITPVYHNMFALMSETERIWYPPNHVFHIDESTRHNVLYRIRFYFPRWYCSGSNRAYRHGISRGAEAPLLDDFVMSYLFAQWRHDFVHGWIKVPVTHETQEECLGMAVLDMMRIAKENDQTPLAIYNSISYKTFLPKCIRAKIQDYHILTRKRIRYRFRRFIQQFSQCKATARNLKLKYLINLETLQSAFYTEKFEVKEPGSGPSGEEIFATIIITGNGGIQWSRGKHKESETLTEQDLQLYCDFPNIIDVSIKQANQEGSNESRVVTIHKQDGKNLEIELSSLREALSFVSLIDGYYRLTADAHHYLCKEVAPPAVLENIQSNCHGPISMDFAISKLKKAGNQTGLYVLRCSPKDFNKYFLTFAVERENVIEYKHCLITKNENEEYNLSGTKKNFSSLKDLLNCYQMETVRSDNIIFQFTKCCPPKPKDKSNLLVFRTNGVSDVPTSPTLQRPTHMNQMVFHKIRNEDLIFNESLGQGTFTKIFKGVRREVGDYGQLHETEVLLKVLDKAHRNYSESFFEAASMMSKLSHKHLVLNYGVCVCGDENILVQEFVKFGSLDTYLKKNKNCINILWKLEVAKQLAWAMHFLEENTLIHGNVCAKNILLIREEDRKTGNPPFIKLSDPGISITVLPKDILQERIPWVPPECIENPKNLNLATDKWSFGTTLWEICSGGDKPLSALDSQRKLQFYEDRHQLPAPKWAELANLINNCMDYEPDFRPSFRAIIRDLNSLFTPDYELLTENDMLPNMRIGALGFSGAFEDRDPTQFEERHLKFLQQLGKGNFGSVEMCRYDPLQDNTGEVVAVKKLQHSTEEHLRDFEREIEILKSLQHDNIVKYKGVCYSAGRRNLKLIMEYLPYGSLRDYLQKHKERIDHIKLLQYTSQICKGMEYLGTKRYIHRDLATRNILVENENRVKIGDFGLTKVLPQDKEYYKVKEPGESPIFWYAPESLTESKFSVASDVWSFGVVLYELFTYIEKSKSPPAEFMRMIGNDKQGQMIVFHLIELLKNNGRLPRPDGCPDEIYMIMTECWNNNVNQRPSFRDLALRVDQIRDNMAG
T3 sequence (P15056 whole entry V600E): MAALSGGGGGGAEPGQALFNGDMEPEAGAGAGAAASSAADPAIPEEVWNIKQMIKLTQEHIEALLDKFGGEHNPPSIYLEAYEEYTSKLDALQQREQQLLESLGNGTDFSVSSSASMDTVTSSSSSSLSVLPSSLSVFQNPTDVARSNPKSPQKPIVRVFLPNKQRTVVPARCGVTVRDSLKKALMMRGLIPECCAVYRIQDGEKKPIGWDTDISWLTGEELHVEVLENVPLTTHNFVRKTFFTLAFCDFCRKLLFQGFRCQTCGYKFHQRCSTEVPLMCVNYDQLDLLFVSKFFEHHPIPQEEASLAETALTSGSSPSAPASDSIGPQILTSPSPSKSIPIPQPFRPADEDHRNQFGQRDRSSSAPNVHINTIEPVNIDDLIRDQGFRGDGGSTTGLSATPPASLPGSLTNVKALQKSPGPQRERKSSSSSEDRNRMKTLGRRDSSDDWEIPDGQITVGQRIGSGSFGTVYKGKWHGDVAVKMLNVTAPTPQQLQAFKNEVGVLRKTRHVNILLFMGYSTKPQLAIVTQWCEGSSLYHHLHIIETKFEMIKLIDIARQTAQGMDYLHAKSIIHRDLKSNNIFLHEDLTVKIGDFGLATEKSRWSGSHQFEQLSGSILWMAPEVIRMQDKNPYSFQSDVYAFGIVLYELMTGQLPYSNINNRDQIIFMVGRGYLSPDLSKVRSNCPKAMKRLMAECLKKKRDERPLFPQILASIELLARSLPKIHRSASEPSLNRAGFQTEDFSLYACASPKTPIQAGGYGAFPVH
T16 sequence (Q15418 whole entry): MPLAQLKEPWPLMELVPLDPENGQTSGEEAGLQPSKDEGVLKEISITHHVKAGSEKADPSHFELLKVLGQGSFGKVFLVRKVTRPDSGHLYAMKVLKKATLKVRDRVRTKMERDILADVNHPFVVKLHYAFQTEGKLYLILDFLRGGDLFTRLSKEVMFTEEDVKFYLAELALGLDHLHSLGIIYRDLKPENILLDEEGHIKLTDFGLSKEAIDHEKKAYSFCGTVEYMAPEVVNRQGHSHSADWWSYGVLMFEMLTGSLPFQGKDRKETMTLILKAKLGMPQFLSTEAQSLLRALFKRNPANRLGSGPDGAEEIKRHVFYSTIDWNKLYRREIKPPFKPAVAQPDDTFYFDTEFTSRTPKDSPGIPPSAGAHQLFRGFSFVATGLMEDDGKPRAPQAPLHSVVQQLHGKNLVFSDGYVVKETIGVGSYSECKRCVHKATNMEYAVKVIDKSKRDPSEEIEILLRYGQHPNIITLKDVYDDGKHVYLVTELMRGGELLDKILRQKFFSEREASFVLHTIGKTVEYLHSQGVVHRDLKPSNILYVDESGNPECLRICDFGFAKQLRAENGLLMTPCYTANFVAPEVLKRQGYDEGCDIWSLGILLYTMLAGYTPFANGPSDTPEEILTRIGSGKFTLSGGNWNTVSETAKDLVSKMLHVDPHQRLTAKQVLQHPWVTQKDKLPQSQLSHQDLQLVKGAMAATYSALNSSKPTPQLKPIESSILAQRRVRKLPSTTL
T19 sequence (P35968 20-1356): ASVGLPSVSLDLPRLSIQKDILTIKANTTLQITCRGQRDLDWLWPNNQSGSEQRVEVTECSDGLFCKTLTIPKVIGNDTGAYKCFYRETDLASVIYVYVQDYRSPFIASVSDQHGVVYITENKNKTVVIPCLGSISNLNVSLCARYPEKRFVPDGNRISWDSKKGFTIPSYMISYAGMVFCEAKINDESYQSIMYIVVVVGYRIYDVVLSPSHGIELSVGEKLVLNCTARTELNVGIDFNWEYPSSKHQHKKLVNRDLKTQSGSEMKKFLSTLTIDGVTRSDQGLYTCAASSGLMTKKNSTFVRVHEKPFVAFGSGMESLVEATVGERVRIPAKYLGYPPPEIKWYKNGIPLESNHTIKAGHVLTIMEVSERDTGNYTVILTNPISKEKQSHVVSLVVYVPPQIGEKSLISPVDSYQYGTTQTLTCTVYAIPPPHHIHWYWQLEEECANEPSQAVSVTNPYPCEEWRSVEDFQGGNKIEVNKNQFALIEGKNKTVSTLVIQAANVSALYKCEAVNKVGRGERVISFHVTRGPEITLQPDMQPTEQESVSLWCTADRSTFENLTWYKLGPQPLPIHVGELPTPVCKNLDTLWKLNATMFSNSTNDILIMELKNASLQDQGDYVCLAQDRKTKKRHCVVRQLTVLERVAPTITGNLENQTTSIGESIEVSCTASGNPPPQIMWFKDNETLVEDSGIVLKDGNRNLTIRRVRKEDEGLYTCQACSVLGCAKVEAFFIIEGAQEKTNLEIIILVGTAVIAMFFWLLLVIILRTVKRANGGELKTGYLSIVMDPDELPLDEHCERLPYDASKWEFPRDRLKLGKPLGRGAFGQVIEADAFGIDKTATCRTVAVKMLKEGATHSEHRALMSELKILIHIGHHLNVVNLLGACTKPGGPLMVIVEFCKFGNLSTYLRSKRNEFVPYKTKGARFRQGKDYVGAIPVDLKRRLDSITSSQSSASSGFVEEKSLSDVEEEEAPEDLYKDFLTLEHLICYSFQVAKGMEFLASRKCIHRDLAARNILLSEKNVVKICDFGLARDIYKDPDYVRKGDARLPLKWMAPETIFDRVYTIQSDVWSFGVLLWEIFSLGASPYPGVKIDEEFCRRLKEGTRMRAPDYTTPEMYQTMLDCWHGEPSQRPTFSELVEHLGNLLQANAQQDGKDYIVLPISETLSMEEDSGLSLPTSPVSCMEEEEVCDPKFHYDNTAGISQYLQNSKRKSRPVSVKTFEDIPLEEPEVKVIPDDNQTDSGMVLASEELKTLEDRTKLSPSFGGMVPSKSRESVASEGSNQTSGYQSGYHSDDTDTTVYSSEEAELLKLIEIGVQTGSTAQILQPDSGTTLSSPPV

SMILES | Frequency of MTS events per metaphase compared to DMSO [2] | inhibition at 1 µM [4] [%] | inhibition at 1 µM [5] [%] | inhibition at 1 µM [6] [%] | inhibition at 1 µM [7] [%] | inhibition at 1 µM [8] [%] | inhibition at 1 µM [9] [%] | inhibition at 1 µM [10] [%] | inhibition at 1 µM [11] [%] | inhibition at 1 µM [12] [%] | inhibition at 1 µM [13] [%] | inhibition at 1 µM [14] [%] | inhibition at 1 µM [15] [%] | inhibition at 1 µM [16] [%] | inhibition at 1 µM [17] [%] | inhibition at 1 µM [18] [%] | inhibition at 1 µM [19] [%] | inhibition at 1 µM [20] [%] | inhibition at 1 µM [21] [%] | other results
CS(=O)(=O)N1CCN(Cc2cc3c(N4CCOCC4)nc(-c4cnc(N)nc4)cn3n2)CC1 [ETP-47037] | significantly increased | -7.5 | 6.5 | -4.5 | -6 | -1 | 22.5 | 6.5 | 5 | 2 | 9 | 3 | -3.5 | 4 | 7 | -4.5 | 0.5 | 26 | 21.5 | IC50 [1]: 49.1 nM; TRF1 mRNA levels [3]: None of the inhibitors significantly affected
Cc1cnc2c(N3CCOCC3)nc(-c3ccc(NC(=O)Nc4ccc(C(=O)N5CCN(C)CC5)cc4)cc3)cn12 [ETP-47228] | significantly increased | -8 | 11.5 | 1 | 2 | 4 | 0.5 | -3.5 | -3 | 4 | 6.5 | 3 | 1 | 1 | -9 | -1.5 | 0.5 | 5 | -3 | 
